Measurements published in patent US20210345614A1, “APPLICATION OF 7-CARBOXYBENZO[1,2,3]THIADIAZOLE AMIDES AS PLANT STIMULANTS” (ADAM MICKIEWICZ UNIVERSITY FOUNDATION, priority 2015, published 2021).
“And” between values parts separate entries of the source, which are not always exact repeats. Identical values can stand only once.

Legend:
potato virus Y (PVY) = assay: Field experiment on potato, PVY infection of tubers by DAS ELISA; type: in vivo, potato variety Altesse; settings: for % of tubes infected by PVY Virus: field
Rhynchosporium secalis = assay: Field test on barley, fungal infection by Rhynchosporium secalis; type: in vivo, Hordeum vulgare (spring); settings: Example 28: BTHWA 20 mg/L with Trend 90 EC, six foliar applications at 10 days intervals; harvested 13 days after last treatment
Procedure: The test was on a variety of barley Hordeum vulgare (spring). There were six applications of the active substance solution. The study was conducted on fields of about 25 m^2 in quadruplicate for each combination tested.

[1] = tested on: tobacco mosaic virus (TMV); assay: BTHWA effect on the infectivity of tobacco mosaic virus (virus pre-incubated with compound, necrotic spots on tobacco leaves); type: in vivo, tobacco cv. xanthi; settings: TMV approx. 3 μg/ml incubated 30 min with BTHWA 40 mg/L 1:1; after 5 days
Procedure: (§1) Purified tobacco mosaic virus (TMV) at a concentration of approx. 3 μg/ml was mixed with N-methyl-N-methoxy-7-carboxybenzo[1,2,3]thiadiazole amide (BTHWA) formulation (concentration 40 mg/L) in a 1:1 volume ratio and incubated for 30 min at room temperature (treated leaves). The control was TMV incubated in water. Both virus suspensions were used to mechanically infect tobacco leaves cv. xanthi. Local necrotic spots (hypersensitivity, local infection) produced on the tobacco leaves were measured.

powdery mildew fungi = assay: BTHWA effect on the infectivity of fungi, growth in nutrition medium; type: cell-based; settings: BTHWA 40 mg/L formulation, after 2 days
Procedure: as §1
The procedure as described in Example 1 was followed, however, a powdery mildew fungi was used, which was then incubated in a nutrition medium.

Pyrenophora teres = assay: Field test on barley, fungal infection by Pyrenophora teres; type: in vivo, Hordeum vulgare (spring); settings: Example 27: BTHWA 20 mg/L with Trend 90 EC, six foliar applications at 10 days intervals; harvested 13 days after last treatment
Procedure: The test was conducted on a variety of barley Hordeum vulgare (spring). As such, six applications of the active substance solution was made. The study was conducted on fields of about 25 m^2 in quadruplicate for each combination tested. […] (with the addition of commercial adjuvant) followed by treatment with common fungicide (tebukonazole in formulation containing 250 g of active substance to be applied per 1 ha) in reducing infection of fungi Pyrenophora teres in barley (Hordeum vulgare (spring)) was performed. […] Six applications of the active substance BTHWA solution were made. As a control, one application of fungicide was performed at the time as indicated on the product label. The study was conducted on fields of about 25 m^2 in quadruplicate for each combination tested. […] The fungicide was applied in an amount of 33% its recommended dose (83 g/ha). Six applications of the active substance BTHWA solution were made. As a control, one application of fungicide was performed at the time as indicated on the product label. The study was conducted on fields of about 25 m^2 in quadruplicate for each combination tested.

[2] = tested on: tobacco mosaic virus (TMV); assay: TMV-tobacco cv. xanthi model, protection against biotic stress (necrotic spots); type: in vivo, Nicotiana tabacum cv. xanthi; settings: sprayed twice at weekly intervals with 10 mg/L
[3] = tested on: Tobacco plants (Nicotiana tabacum) var. xanthi; assay: Protection against abiotic stress in tobacco caused by herbicide (glyphosate); type: in vivo; settings: watered twice 20 mg/l; glyphosate 0.005% aqueous solution; 10 days after herbicide application
Procedure: Tobacco plants (Nicotiana tabacum) var. […] stage of 3 developed leaves were watered twice with solution of BTHWA at concentration of 20 mg/l, at a weekly interval. Control […] plants were treated with water only.

[4] = tested on: Pseudomonas syringe pv. tomato; assay: BTHWA effect on the infectivity of bacteria, growth in Mueller-Hinton broth; type: cell-based; settings: BTHWA 40 mg/L formulation, after 2 days
Procedure: as §1
The procedure as described in Example 1 was followed, however, the bacterium Pseudomonas syringe pv. tomato was used. The suspensions formed were incubated in a Mueller-Hinton broth nutrition medium. After 2 days, the concentration of bacteria on the treated plates was compared to the control.

Tomato plants [5] = assay: Protection against abiotic stress in tomato caused by herbicide (glyphosate); type: in vivo; settings: watered twice 20 mg/L; glyphosate 0.005% aqueous solution; 10 days after herbicide application
Procedure: Tomato plants in the phase of first pair of developed true leaves were watered twice with BTHWA at concentration of 20 mg/L, at a weekly intervals. Control tomato plants were treated with water only.

Brome Mosaic Virus BMV = assay: Protection of barley against Brome Mosaic Virus infection by watering; type: in vivo
Procedure: […] Control barley plants were treated with water only. One week after the second application of BTHWA, in each plant, one young developed leaf was sprinkled with carborundum to obtain small scratches, which helped in the virus infection.

Tomato plants [6] = assay: Protection against abiotic stress in tomato caused by lack of water; type: in vivo; settings: watered twice 20 mg/L; 10 days after cessation of watering
Procedure: Tomato plants in the phase of first pair of developed true leaves were watered twice with BTHWA at concentration of 20 mg/L, at a weekly intervals. Control tomato plants were treated with water only. A week after the second treatment, plants were exposed to a stress factor in the form of lack of access to water.

CON(C)C(=O)c1cccc2nnsc12 [BTHWA, N-methyl-N-methoxy-7-carboxybenzo[1,2,3]thiadiazole amide]
reduction in the amount of PVY virus occurrence in the treated plants (potato virus Y (PVY); foliar application 20 mg/L of operational fluid, field conditions): ~50% | % of tubes infected by PVY Virus (potato virus Y (PVY); foliar application 20 mg/L with mineral oil adjuvant, 7 days intervals): 44.2% | % of tubes infected by PVY Virus (potato virus Y (PVY); tuber dressing 20 mg/L + foliar application 20 mg/L): 40.7% | % of infection (Rhynchosporium secalis): 10% and 10.63% | difference in number of necrotic spots between control and treated leaves [1]: 12% | differences in fungal growth on the treated plates and control (powdery mildew fungi): < 5% | % of infection (Pyrenophora teres): 17% and 17.50% | protection against biotic stress caused by TMV infection [2]: protected the treated leaves against biotic stress | lesser negative effect of the herbicide compared to the control [3]: 26% | growth differences between the control medium and the treated medium [4]: < 5% | lesser negative effect of the herbicide compared to the control (Tomato plants [5]): 30% | biotic stress effects (disease symptoms) compared to control (Brome Mosaic Virus BMV; watered twice at weekly intervals with 70 ml of 20 mg/L, two weeks after BMV infection): showed no presence of biotic stress effects | prevention of biotic stress caused by BMV infection (Brome Mosaic Virus BMV; watered with 10 mg/L): 65% | total mass of the untreated plants lower than the weight of the treated plants (Tomato plants [6]): 10%
